Experiment [1] concerns the target Alkaline phosphatase, placental type (Homo sapiens, UniProt P05187). In words: human placental alkaline phosphatase inhibition – biochemical, luminescence, confirmation (AID 1512). The format is functional.
The target in experiment [2] is Glyceraldehyde-3-phosphate dehydrogenase (Homo sapiens, UniProt P04406).
Experiment [3] concerns the target T1, Alkaline phosphatase, tissue-nonspecific isozyme (Homo sapiens, UniProt P05186).
T1 sequence (P05186 whole entry): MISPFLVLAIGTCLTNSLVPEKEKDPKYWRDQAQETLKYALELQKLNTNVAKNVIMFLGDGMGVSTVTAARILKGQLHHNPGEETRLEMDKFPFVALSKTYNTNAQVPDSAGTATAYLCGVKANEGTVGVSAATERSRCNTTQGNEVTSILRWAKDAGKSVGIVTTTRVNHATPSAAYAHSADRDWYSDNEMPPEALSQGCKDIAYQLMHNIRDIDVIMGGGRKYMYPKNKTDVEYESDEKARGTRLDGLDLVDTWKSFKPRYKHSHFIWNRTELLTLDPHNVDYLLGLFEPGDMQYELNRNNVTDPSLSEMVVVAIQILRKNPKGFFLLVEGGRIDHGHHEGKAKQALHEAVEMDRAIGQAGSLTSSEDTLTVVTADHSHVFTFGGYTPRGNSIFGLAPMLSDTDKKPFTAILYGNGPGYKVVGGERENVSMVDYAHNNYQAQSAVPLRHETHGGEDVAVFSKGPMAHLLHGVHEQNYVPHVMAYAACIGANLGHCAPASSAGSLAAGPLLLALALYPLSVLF
The experiment is described as follows: potency against alkaline phosphatase TNAP – biochemical, luminescent, dose response, SAR follow-up (AID 1056).

Experiment [4] addresses T2, Lysine-specific demethylase 4C (Homo sapiens, UniProt Q9H3R0).
T2 sequence (Q9H3R0 whole entry): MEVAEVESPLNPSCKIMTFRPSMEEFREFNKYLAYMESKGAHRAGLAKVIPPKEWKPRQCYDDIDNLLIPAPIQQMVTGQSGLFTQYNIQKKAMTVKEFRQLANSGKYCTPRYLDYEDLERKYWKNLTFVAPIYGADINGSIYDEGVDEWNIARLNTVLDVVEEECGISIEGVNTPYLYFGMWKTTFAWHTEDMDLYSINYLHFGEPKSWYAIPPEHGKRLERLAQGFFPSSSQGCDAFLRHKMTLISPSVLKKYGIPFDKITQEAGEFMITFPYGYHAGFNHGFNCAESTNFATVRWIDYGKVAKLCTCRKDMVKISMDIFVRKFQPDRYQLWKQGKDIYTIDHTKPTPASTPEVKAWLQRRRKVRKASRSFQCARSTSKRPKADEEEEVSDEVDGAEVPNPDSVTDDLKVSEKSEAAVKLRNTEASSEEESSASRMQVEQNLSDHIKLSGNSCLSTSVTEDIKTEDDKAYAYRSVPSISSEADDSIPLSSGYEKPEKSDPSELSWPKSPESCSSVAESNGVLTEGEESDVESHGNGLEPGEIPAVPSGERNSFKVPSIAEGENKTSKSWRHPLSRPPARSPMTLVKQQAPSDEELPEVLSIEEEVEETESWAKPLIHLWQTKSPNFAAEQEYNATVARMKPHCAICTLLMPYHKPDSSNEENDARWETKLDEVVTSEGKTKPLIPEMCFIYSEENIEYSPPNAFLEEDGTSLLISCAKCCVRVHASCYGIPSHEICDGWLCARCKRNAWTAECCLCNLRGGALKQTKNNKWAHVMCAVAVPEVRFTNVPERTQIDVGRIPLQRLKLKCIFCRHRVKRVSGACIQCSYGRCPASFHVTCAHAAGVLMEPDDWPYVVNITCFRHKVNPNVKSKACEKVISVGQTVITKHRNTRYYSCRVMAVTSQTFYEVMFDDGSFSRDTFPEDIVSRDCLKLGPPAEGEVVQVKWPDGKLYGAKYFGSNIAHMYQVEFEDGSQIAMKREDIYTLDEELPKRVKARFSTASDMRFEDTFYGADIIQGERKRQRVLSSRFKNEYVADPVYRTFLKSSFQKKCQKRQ
The experiment is described as follows: inhibition of JMJD2C H3K9me3 demethylation – biochemical, DELFIA europium, cherry-picked samples, dose response (AID 488835). Type of experiment: functional.

The target of another experiment is Large T antigen (Simian virus 40, UniProt P03070). Type of experiment: functional, Betapolyomavirus macacae.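 Also: Confirmatory-stage PubChem screen for compounds that inhibit SV40 T antigen.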
Experiment [5] has as its target Lysine-specific demethylase 4A (Homo sapiens, UniProt O75164). In words: inhibition of JMJD2A H3K9me3 demethylation – biochemical, DELFIA europium, cherry-picked samples, selectivity assay for GASC-1 inhibitor project, dose response (AID 488840).
In experiment [6] the target is T3, Tyrosine-protein phosphatase non-receptor type 22 (Homo sapiens, UniProt Q9Y2R2).
T3 sequence (Q9Y2R2 whole entry): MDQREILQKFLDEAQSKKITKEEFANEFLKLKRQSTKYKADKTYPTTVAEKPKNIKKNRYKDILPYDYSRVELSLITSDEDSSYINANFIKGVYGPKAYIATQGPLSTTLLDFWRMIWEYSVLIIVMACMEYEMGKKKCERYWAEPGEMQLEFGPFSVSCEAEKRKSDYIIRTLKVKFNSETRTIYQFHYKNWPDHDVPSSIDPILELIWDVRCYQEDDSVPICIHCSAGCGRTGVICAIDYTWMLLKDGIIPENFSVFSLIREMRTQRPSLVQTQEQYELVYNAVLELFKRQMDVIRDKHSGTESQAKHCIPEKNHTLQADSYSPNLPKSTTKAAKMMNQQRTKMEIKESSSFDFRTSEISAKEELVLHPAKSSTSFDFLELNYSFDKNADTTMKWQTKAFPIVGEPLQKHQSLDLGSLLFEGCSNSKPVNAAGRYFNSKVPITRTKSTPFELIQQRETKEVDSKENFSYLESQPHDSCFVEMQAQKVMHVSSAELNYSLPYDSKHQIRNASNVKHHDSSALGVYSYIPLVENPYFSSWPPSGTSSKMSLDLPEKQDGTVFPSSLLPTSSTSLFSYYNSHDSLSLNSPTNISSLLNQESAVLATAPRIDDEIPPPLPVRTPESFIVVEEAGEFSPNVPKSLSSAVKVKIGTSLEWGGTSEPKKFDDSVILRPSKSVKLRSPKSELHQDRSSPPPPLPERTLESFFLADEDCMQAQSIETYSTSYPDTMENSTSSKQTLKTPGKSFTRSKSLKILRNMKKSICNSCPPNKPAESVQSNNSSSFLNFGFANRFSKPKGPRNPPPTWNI
The format is functional.

Experiment [7] addresses T3, Tyrosine-protein phosphatase non-receptor type 22. The experiment is described as follows: LYP1 Fluorescent Assay using OMFP substrate for In Vitro dose response studies. [Related pubchem assays (depositor defined):AID1779, AID1784, AID435024].
For experiment [8], the target named is T4, Tyrosine-protein phosphatase non-receptor type 7 (Homo sapiens, UniProt P35236).
T4 sequence (P35236 whole entry): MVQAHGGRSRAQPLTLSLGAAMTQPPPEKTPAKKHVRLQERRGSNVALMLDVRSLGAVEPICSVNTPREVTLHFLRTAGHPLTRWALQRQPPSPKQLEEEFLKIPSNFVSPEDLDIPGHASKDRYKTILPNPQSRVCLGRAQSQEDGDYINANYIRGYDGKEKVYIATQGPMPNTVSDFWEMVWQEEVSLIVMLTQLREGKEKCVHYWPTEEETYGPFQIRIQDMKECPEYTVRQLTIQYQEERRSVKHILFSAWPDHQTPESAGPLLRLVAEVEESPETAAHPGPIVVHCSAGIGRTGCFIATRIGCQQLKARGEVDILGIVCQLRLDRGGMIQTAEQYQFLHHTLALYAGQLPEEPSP
The experiment is described as follows: HTS HePTP Fluorescent Assay using OMFP substrate for In Vitro dose response studies. [Related pubchem assays (depositor defined):AID1059, AID1077, AID1784, AID2068, AID2085, AID435032, AID521]. Type of experiment: functional.

For experiment [9], the target named is T5, Dual specificity protein phosphatase 6 (Rattus norvegicus, UniProt Q64346).
T5 sequence (Q64346 whole entry): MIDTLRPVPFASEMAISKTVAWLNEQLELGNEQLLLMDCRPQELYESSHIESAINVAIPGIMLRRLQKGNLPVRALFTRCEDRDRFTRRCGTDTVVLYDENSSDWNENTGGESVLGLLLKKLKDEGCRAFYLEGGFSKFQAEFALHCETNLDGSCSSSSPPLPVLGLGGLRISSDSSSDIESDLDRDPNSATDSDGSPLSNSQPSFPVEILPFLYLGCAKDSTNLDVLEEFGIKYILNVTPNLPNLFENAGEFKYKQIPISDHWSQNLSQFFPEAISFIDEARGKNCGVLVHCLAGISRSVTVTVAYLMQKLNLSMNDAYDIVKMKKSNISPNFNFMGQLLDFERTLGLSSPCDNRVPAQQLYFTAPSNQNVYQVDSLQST
In words: inhibition of rat DUSP6 enzyme activity – biochemical, in vitro, primary screen (AID 425).

Experiment [10] addresses T3, Tyrosine-protein phosphatase non-receptor type 22. In words: PTPN22 lymphoid phosphatase activity blockers – biochemical, fluorescence intensity, uHTS (AID 1779).
The target in experiment [11] is T6, Dual specificity protein phosphatase 3 (Homo sapiens, UniProt P51452). In words: VHR1 phosphatase inhibitors, biochemical (AID 1878).
The target of experiment [12] is T4, Tyrosine-protein phosphatase non-receptor type 7. The format is functional.
The target in experiment [13] is T6, Dual specificity protein phosphatase 3. In words: VHR1 phosphatase inhibitors, primary screen, biochemical, absorbance, uHTS (AID 1654).
For another experiment, the target named is T7, Aminopeptidase N (Plasmodium falciparum FcB1/Columbia, UniProt O96935).
T7 sequence (O96935 whole entry): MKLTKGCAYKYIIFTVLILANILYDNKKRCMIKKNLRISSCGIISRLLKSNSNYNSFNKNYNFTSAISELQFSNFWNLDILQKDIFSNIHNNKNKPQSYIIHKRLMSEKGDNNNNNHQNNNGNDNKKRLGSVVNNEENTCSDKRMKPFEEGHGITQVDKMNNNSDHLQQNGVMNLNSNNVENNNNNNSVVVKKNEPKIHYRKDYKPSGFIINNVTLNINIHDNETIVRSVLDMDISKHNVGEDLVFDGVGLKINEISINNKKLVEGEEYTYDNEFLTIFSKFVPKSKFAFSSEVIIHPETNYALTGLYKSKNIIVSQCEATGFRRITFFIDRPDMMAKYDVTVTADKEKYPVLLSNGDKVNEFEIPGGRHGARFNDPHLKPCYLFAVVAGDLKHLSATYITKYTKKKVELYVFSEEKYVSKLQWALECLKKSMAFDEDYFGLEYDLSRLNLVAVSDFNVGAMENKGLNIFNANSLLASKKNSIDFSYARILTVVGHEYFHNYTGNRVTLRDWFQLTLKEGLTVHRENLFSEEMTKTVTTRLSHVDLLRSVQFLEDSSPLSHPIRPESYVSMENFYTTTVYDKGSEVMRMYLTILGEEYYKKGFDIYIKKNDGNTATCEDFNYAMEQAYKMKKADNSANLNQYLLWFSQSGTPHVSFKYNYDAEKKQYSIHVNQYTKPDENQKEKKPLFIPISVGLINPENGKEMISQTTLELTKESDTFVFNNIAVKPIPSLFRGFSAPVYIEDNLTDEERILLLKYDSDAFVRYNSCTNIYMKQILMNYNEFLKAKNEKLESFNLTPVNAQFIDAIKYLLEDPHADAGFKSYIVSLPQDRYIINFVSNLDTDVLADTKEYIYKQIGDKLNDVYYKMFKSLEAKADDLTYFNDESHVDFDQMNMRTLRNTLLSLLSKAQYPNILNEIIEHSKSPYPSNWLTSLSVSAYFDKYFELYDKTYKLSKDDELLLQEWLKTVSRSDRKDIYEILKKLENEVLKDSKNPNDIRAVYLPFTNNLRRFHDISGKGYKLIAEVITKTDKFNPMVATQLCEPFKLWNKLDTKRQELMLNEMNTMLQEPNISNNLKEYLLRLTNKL
The experiment is described as follows: malaria alanyl aminopeptidase activity blockers – biochemical, fluorogenic H-Leu-NHMec substrate, 1536-well (AID 1445). On the set-up: species or system Plasmodium falciparum 3D7, 3D7.

For experiment [14], the target named is T3, Tyrosine-protein phosphatase non-receptor type 22. The format is functional. The source holds these as a separate data set.

Structures are written as SMILES. “And” between values parts separate entries of the source, which are not always exact repeats. Equal entries are not always repeated. The source made the active and inactive calls. Bounds are passed on as bounds.

Chain of Alkaline phosphatase, placental type (P05187 whole entry): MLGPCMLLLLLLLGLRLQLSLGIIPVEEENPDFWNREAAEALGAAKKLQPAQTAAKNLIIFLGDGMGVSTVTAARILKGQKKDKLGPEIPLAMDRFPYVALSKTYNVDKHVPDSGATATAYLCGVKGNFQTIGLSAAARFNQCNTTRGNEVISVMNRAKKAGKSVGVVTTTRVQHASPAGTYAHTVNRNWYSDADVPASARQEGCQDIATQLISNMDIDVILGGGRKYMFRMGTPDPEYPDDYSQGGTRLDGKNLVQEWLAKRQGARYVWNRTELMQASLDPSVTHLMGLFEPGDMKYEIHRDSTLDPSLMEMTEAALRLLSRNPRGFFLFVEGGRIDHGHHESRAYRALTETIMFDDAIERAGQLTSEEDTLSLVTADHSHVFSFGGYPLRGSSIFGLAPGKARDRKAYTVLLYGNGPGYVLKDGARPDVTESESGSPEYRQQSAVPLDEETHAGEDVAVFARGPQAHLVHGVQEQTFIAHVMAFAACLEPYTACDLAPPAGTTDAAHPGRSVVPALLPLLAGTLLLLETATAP
Chain of Glyceraldehyde-3-phosphate dehydrogenase (P04406 whole entry): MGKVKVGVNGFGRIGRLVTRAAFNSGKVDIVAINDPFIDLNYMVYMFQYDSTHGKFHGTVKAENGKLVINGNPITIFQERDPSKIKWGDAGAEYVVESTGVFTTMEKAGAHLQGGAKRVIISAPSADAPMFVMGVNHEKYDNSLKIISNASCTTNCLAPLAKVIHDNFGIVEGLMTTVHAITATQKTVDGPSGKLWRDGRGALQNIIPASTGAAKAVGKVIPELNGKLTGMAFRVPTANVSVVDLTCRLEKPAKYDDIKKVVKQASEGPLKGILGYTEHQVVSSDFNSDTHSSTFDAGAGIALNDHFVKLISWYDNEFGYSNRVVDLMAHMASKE
T6 sequence (P51452 whole entry): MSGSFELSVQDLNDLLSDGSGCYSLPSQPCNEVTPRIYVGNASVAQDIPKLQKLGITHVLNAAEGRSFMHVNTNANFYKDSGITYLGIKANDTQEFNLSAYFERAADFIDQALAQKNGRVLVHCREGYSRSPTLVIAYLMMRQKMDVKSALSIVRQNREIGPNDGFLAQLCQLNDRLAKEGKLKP
Chain of Lysine-specific demethylase 4A (O75164 whole entry): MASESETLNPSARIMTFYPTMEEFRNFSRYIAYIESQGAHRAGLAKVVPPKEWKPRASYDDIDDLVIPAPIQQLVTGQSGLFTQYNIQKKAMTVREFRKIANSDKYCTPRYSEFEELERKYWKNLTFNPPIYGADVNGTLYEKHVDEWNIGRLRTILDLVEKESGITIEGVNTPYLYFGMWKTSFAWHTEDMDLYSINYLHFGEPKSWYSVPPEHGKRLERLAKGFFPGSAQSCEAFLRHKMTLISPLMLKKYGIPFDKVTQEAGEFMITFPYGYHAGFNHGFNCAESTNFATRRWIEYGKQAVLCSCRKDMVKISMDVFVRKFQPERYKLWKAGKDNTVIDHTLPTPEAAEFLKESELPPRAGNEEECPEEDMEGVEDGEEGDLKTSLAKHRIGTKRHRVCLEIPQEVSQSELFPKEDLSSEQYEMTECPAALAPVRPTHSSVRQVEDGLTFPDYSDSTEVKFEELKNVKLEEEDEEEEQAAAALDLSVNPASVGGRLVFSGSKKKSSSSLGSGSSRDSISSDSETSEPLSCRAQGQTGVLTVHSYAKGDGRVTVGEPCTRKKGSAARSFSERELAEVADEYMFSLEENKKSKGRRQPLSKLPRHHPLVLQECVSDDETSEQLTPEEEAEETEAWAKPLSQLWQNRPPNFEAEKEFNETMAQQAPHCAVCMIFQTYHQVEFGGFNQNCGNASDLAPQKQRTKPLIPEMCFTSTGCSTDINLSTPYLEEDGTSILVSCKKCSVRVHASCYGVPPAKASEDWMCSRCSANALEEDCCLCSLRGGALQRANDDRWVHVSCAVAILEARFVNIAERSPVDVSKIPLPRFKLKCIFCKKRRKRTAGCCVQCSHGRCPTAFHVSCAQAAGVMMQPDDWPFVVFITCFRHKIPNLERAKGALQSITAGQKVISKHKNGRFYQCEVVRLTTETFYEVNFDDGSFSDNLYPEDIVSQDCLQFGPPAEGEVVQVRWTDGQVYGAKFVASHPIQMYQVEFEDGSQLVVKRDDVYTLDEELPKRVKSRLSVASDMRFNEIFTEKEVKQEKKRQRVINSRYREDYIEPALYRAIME
Chain of Large T antigen (P03070 whole entry): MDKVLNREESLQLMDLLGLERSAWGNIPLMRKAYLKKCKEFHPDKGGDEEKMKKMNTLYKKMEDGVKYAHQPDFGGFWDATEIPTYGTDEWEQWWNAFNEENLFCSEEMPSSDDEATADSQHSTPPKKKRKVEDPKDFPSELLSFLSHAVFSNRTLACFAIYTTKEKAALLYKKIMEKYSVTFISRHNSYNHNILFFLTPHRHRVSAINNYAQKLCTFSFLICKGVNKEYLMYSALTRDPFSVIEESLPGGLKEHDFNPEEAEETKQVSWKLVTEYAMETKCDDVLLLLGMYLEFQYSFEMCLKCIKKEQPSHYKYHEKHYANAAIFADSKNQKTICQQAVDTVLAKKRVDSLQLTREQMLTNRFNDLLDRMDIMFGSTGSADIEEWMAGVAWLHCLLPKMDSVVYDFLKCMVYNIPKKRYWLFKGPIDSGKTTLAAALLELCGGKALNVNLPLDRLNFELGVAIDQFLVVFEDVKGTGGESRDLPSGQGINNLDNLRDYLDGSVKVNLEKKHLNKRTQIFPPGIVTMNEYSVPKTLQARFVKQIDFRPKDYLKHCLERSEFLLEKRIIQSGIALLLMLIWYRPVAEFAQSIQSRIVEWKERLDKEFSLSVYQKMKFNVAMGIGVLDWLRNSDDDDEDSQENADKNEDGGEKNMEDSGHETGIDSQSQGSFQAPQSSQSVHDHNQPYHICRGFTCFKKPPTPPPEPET

As usually defined, the IC50 is the midpoint of a concentration-inhibition curve. With `Oc1ccccc1-c1n[nH]c(-c2ccccc2O)n1`, the IC50 was > 100 µM (inactive) in [1], > 100 µM (not active) in [2] and > 100 µM (inactive) in [3].
Take `O=C1C2CC=CCC2C(=O)N1c1nnc(Cc2ccccc2)[nH]1` (centres undefined): the concentration for half-maximal inhibition (IC50) in experiment [1] was 2.04 µM (active) and 3.25 µM (active); in experiment [2] it was > 100 µM (not active); in [3], 169 nM (active) and 126 nM (active) and 172 nM (active).
Broadly, the AC50 is the concentration giving half of the maximal activity seen. With `COc1ccc(NN=Nc2nc3c(=O)n(C)c(=O)n(C)c3[nH]2)cc1`, the AC50 in experiment [4] is 8.08 µM (active); in experiment [5] it was > 60 µM (inactive). Also, the IC50 on Large T antigen was 36.8 µM (active).
For the molecule `COc1ccc(/N=C2\S/C(=C\c3ccc(OCC(=O)O)cc3)C(=O)N2CCc2c[nH]c3ccccc23)cc1`, the IC50 in experiment [6] was < 1.24 µM (active); in experiment [7], > 99 µM (inactive); in [8] it was > 99 µM (inactive); in [9] it was > 158 µM (not active); in experiment [10] it was > 99 µM (inactive); in experiment [11], 2.43 µM (active). Moreover, the IC50 in experiment [12] is 2.52 µM (active); in experiment [13] it was 3.49 µM (active); at Aminopeptidase N, 75.7 µM (active); in experiment [14] it was < 1.24 µM (active).
